Measurements reported in patent US20080153872A1, “Bis-(Coumarin) Compounds With Anti-Inflammatory Activity” (priority 2005, published 2008).

What was measured:
[1] = tested on: Human prostanoid receptor; test: Human prostanoid receptor assay ([3H]-PGD2 competition); assay type: binding; details: 10 μM concentration; CHO-K1
Method: (§1) All compounds were dissolved in dimethyl sulfoxide (DMSO). Final concentration of the DMSO in all tests was 1% (v/v). Inhibition in all tests is considered preferred if it exceeds 50% at 10 μM concentration (or less).
Human prostanoid receptor is expressed in Chinese hamster ovary cell line, clone K1 (CHO-K1). Substances and radioactive competitor (tritium labelled Prostaglandin D2 in 1.7 nM concentration) are incubated with cells in HEPES buffer for 2 hours at 25° C. in the presence of manganese ions. Level of the bound PGD2 is measured by scintillation counting, and competition is calculated from comparing the total amount of the bound PGD2 in treated versus control cells. Prostanoids are involved in many physiological and pathological processes, from inflammation to pain.

human PDE4 = test: Human PDE4 assay (U937); assay type: biochemical; details: 10 μM concentration
Method: as §1
(§2) PDE4 assay. PDE is implicated in diseases such as chronic obstructive pulmonary disease and neutrophilia. Human monocytic leukemia cell line U937 is pre-incubated at 25° C. in Tris-HCl buffer containing magnesium ions for 15 minutes. 1.01 μM tritium labeled cyclic adenosine monophosphate (cAMP) is added as substrate, followed by incubation at 25° C. for 20 minutes. Percentage of inhibition is calculated by comparing the adenosine levels in supernatant which is formed from cAMP in treated versus control cells.

Balb/cJ mice = test: LPS induced pulmonary neutrophilia in mice; assay type: in vivo, mouse; details: LPS challenged mice; i.n., i.p. or per os
Method: Male Balb/cJ mice (Iffa Credo, France) weighing ˜25 g are randomly grouped into a negative control group, positive control group and groups treated with compounds to be assayed). Test compounds, as well as vehicle (DMSO+0.5% methyl-cellulose) (all from Sigma), are administered i.n., ip. or per os two hours prior to administration of lipopolysaccharide (LPS) (E. coli, serotype 0111:B4, Sigma) or two hours prior and two hours after administration of LPS. Test compounds are administered at a single dose (two hours prior the challenge) or divided into two doses (two hours prior and two hours after the challenge). LPS solution in phosphate buffered saline (PBS) (Sigma) is administered intranasally in volume of 60 μL at concentration of 33,33 μg/mL, to all experimental groups except the negative control group, which received the same volume (60 μL) of vehicle PBS. During the challenge, animals were anaesthetized by using intraperitoneal anaesthesia. Animals are euthanized by i.p. anesthesia overdose approximately 24 hours after application of LPS to obtain bronchoalveolar lavage fluid (BALF), which is used to determine total protein concentration as well as concentrations of cytokines, such as IL-1β and TNF-α, absolute number of cells, and percentage of neutrophils in BALF. Bronchoalveolar lavage (BAL) is performed by infusing 1 mL of PBS divided into 3 separate volumes (0.4, 0.3 and 0.3 ml) through trachea into the lungs. The fluid is immediately withdrawn and the cell suspension stored into previously prepared 1.5 mL Eppendorf tube. Bronchoalveolar lavage fluid (BALF) is then centrifuged at […] for 5 min (4° C.). Cells are resuspended in 700 μL of PBS. To prepare cytospins, 320 μL of suspension is centrifuged at 250 rpm for 10 min (Cytospin-3, Shandon Instruments). Cells are stained with Dif-Quik (Dade Behring) to determine percentage of neutrophils by counting of at least 200 cells. The remaining resuspended cells are used for total cell count in BALF analysis (Sysmex SF 3000). […] Accumulation of granulocytes and mononuclear cells in peribronclhial (PB) and perivascular (PV) lung tissue areas and alveolar spaces is monitored.
Results can be expressed as (I) decrease of absolute cell number per mL in BALF, (II) decrease of number of neutrophils per mL in BALF, (III) reduction of relative number (percentage) of neutrophils in BALF, (IV) reduction of cytokine concentrations in BALF, as well as (V) suppression of accumulation of granulocytes and mononuclear cells in peribronchial (PB) and perivascular (PV) lung tissue areas and in alveolar spaces by pathohistological scoring of treated animals compared to positive control (LPS stimulated, but untreated animals).

human PDE3 = biological target: T1, human PDE3 (Homo sapiens, UniProt Q14432); test: Human PDE3 assay (platelets); assay type: biochemical; details: 10 μM concentration
T1 construct: Isolated human platelets are pre-incubated at 25° C; from tissue; host or cells: human platelets
Method: as §1
as §2, with “PDE3” for “PDE4”, “Isolated human platelets are” for “PDE is implicated in diseases such as chronic obstructive pulmonary disease and neutrophilia. Human monocytic leukemia cell line U937 is”

human 5-LO = biological target: T2, human 5-LO (Homo sapiens, UniProt P09917); test: Human 5-Lipoxygenase, 5-LO, assay in peripheral mononuclear blood cells; assay type: cell-based; details: 10 μM concentration, LTB4 readout
T2 construct: Human peripheral mononuclear blood cells were isolated using Ficoll density separation; endogenous in cells; host or cells: human peripheral blood mononuclear cells
T2 sequence (P09917 1-674): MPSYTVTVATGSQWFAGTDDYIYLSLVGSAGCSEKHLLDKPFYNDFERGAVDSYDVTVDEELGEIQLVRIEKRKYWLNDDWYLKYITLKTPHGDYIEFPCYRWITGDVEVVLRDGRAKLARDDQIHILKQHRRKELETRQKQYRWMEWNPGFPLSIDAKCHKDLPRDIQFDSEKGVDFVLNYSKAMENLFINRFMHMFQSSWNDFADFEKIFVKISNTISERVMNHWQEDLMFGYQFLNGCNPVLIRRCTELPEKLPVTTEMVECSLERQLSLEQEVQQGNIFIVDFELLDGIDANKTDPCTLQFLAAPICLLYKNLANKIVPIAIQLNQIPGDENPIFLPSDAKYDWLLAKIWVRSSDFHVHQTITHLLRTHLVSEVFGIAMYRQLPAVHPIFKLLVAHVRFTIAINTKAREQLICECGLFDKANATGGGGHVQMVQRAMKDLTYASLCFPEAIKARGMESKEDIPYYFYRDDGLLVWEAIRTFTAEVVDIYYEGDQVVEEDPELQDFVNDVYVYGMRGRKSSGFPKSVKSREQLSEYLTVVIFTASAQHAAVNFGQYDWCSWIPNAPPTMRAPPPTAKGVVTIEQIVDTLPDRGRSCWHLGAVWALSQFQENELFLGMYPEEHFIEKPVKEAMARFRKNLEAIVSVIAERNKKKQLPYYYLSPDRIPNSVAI
Method: as §1
Human peripheral mononuclear blood cells were isolated using Ficoll density separation. Cells were incubated in Hanks Balanced Salt Solution (HBSS) with compounds for 15 minutes at 37° C. Substrate (arachidonic acid) was added in 20 μM final concentration and cells were incubated for another 15 minutes. LTB4 as a final product of arachidonic acid metabolism was measured using competitive enzyme immunoassay (See, e.g., Safayhi, H. et al. Planta Medica 2000, 66, 110-113) and percentage of inhibition was calculated from the levels of LTB4 in cell supernatant.

T1 sequence (Q14432 whole entry): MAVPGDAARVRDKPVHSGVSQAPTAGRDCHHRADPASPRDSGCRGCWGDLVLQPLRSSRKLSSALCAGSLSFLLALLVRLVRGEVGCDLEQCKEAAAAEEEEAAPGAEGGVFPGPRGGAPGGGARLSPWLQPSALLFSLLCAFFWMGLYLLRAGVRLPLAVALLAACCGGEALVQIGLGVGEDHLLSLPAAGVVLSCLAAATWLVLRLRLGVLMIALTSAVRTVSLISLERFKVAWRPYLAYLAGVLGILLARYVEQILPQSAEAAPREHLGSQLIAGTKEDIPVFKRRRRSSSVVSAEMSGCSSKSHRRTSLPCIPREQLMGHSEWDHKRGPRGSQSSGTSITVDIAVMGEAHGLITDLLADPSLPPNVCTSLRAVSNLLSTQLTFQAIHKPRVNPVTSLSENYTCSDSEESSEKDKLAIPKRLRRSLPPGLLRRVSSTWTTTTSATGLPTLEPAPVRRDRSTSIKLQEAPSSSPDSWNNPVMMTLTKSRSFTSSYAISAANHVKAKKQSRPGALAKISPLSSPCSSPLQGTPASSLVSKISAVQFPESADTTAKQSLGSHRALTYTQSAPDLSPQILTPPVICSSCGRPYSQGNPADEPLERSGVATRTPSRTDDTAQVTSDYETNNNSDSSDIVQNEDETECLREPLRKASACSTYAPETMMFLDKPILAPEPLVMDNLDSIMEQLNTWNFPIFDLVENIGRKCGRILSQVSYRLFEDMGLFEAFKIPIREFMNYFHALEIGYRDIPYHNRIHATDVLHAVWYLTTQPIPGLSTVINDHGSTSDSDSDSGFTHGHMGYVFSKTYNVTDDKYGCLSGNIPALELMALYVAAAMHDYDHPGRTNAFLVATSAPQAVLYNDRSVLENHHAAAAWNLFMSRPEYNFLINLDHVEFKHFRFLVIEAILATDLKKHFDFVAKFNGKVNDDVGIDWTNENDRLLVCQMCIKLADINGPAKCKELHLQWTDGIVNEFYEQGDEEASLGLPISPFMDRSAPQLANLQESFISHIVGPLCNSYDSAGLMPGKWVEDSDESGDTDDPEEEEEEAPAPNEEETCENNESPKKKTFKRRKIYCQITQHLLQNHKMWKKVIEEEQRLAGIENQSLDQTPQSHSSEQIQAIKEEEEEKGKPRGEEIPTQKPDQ

SMILES	human prostanoid receptor, competition with tritium labelled PGD2 [1]	inhibition of human PDE4 activity (human PDE4)	reduction of percentage of neutrophils and/or their total number in BALF and/or by histological scoring (Balb/cJ mice)	inhibition of human PDE3 activity (human PDE3)	inhibition of human 5-LO (human 5-LO)
CC(=O)C(c1c(O)c2cccc(C(C)C)c2oc1=O)c1c(O)c2cccc(C(C)C)c2oc1=O [Example 19]	significantly relevant activity	significantly inhibited	statistically significant reduction	significantly inhibited	significantly relevant activity
CC(C)c1cccc2c(O)c(C(CO)c3c(O)c4cccc(C(C)C)c4oc3=O)c(=O)oc12 [Example 30]	significantly relevant activity	significantly inhibited	statistically significant reduction	significantly inhibited	significantly relevant activity
CC(C)c1cccc2c(O)c(C(C(=O)OCCO)c3c(O)c4cccc(C(C)C)c4oc3=O)c(=O)oc12 [Example 50]	significantly relevant activity	significantly inhibited	statistically significant reduction	significantly inhibited	significantly relevant activity
